Values of other authors as cited in patent US20120074308A1, “IMMUNOSUPPRESSANT MONITORING BY MALDI MASS SPECTROMETRY” (priority 2010, published 2012).

Conditions: for therapeutic window: immunosuppressants currently used for transplant patients, level in blood; for narrow therapeutic range: levels in whole blood

| Compound | therapeutic window [ng/mL] | narrow therapeutic range [ng/mL] | increased levels associated with high toxicity (thrombocytopenia, hyperlipidemia, high serum creatinine levels) (blood level) |
| --- | --- | --- | --- |
| CO[C@H]1C[C@@H]2CC[C@@H](C)[C@@](O)(O2)C(=O)C(=O)N2CCCC[C@H]2C(=O)O[C@H]([C@H](C)C[C@@H]2CC[C@@H](OCCO)[C@H](OC)C2)CC(=O)[C@H](C)/C=C(\C)[C@@H](O)[C@@H](OC)C(=O)[C@H](C)C[C@H](C)/C=C/C=C/C=C/1C [Everolimus] | 3 to 8 | 3 to 8 |  |
| CO[C@H]1C[C@@H]2CC[C@@H](C)[C@@](O)(O2)C(=O)C(=O)N2CCCC[C@H]2C(=O)O[C@H]([C@H](C)C[C@@H]2CC[C@@H](O)[C@H](OC)C2)CC(=O)[C@H](C)/C=C(\C)[C@@H](O)[C@@H](OC)C(=O)[C@H](C)C[C@H](C)/C=C/C=C/C=C/1C [Sirolimus] | 4 to 12 | 4 to 12 | above 15 nanogram per milliliter |
| C=CC[C@@H]1/C=C(\C)C[C@H](C)C[C@H](OC)[C@H]2O[C@@](O)(C(=O)C(=O)N3CCCC[C@H]3C(=O)O[C@H](/C(C)=C/[C@@H]3CC[C@@H](O)[C@H](OC)C3)[C@H](C)[C@@H](O)CC1=O)[C@H](C)C[C@@H]2OC [Tacrolimus] | 4 to 20 | 4 to 20 |  |
